Reference: US12319672B2, “Alpha-D-galactopyranoside derivatives” (Idorsia Pharmaceuticals Ltd, priority 2019, dated 2025)
Each block holds one molecule with its values, some of them ahead of it.

How the values were obtained:
[1] = target: human Gal-3 (hGal-3) (Homo sapiens (Human), UniProt P17931); experiment: Competitive binding assay: binding of biotinylated hGal-3 to microplate-adsorbed asialofetuin (ASF); conditions: Activity on hGal-3; mean values of several measurements
In short: (§1)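 Biotin-hGal-3/hGal-1 300-1000 ng/mL + cpd (DMSO dilutions) on ASF-coated plate, 3 h 4° C; wash; SA-HRP 80 ng/mL 1 h 4° C; wash; ABTS. IC50 = mean of several runs. hGal-1 preferably Cys→Ser (all six) mutant.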

[2] = target: human Gal-1 (hGal-1); experiment: Competitive binding assay: binding of biotinylated hGal-1 to microplate-adsorbed asialofetuin (ASF); conditions: Activities on hGal-1; mean values of several measurements
Chain of human Gal-1 (hGal-1) (P09382 2-135 limits assumed): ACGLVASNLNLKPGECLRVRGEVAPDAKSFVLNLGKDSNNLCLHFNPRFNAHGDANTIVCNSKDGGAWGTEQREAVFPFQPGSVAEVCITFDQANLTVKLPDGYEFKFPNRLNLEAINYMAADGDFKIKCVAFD
In short: as §1

Chain of human Gal-3 (hGal-3) (P17931 whole entry): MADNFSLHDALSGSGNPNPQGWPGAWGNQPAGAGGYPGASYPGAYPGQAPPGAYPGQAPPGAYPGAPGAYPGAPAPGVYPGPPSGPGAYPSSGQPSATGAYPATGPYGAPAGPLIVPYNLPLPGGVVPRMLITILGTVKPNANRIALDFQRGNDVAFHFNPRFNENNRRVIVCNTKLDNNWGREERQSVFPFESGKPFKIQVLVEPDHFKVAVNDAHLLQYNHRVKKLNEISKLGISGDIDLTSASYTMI

IC50 [1]: 0.7 µM | IC50 [2]: 6.8 µM
SMILES: COc1ccc(C2=NOC(C[C@H]3O[C@H](CO)[C@H](O)[C@H](n4cc(-c5cc(F)c(F)c(F)c5)nn4)[C@H]3O)C2)cn1 (stereo partly drawn) [Ex 1.23]

IC50 [1]: 0.076 µM | IC50 [2]: 0.45 µM
SMILES: CO[C@@H]1[C@@H](n2cc(-c3cc(F)c(F)c(F)c3)nn2)[C@@H](O)[C@@H](CO)O[C@@H]1Cc1cc(C2CCN(C(=O)OC(C)(C)C)CC2)no1 [Ex 1.62]

IC50 [1]: 0.035 µM | IC50 [2]: 0.67 µM
SMILES: CO[C@@H]1[C@@H](n2cc(-c3cc(F)c(F)c(F)c3)nn2)[C@@H](O)[C@@H](CO)O[C@@H]1Cc1cn(C2CCS(=O)(=O)CC2)nn1 [Example 4.16, 4-(4-(((2R,3R,4S,5R,6R)-5-hydroxy-6-(hydroxymethyl)-3-methoxy-4-(4-(3,4,5-trifluorophenyl)-1H-1,2,3-triazol-1-yl)tetrahydro-2H-pyran-2-yl)methyl)-1H-1,2,3-triazol-1-yl)tetrahydro-2H-thiopyran 1,1-dioxide]

IC50 [1]: 0.31 µM | IC50 [2]: > 100 µM
SMILES: CO[C@@H]1[C@@H](n2cc(-c3ccc(C)c(F)c3F)nn2)[C@@H](O)[C@@H](CO)O[C@@H]1Cc1cc(C2(Oc3cncc(Br)c3)COC2)on1 [Ex 1.322]

IC50 [1]: 0.049 µM | IC50 [2]: 1.66 µM
SMILES: CO[C@@H]1[C@@H](n2cc(-c3ccc(Cl)c(F)c3F)nn2)[C@@H](O)[C@@H](CO)O[C@@H]1Cc1cc(C2(C)CCOCC2)on1 [Ex 1.271]

IC50 [1]: 0.35 µM | IC50 [2]: 8.68 µM
SMILES: CO[C@@H]1[C@@H](n2cc(-c3cc(F)c(F)c(F)c3)nn2)[C@@H](O)[C@@H](CO)O[C@@H]1C[C@@H]1CN(C2CCN([S@+]([O-])C(C)(C)C)CC2)C(=O)O1 (mixture of isomers) [Example 5.21, (RS)-3-((RS)-1-(tert-butylsulfinyl)piperidin-4-yl)-5-(((2R,3R,4S,5R,6R)-5-hydroxy-6-(hydroxymethyl)-3-methoxy-4-(4-(3,4,5-trifluorophenyl)-1H-1,2,3-triazol-1-yl)tetrahydro-2H-pyran-2-yl)methyl)oxazolidin-2-one]

IC50 [1]: 0.07 µM | IC50 [2]: 0.33 µM
SMILES: CO[C@@H]1[C@@H](n2cc(-c3ccc(F)c(F)c3F)nn2)[C@@H](O)[C@@H](CO)O[C@@H]1Cc1cc(C(C)(CO)CCl)no1 (stereo partly drawn) [Ex 1.262]

IC50 [1]: 0.063 µM | IC50 [2]: 5.75 µM
SMILES: CO[C@@H]1[C@@H](n2cc(-c3ccc(C)c(F)c3F)nn2)[C@@H](O)[C@@H](CO)O[C@@H]1Cc1cc(C2(C)CCCC2)no1 [Ex 1.288]

Second part, the molecule before the results:

SMILES: CO[C@@H]1[C@@H](n2cc(-c3ccc(F)c(F)c3F)nn2)[C@@H](O)[C@@H](CO)O[C@@H]1Cc1cc(C2CCC2)on1 [Ex 1.226]
IC50 [1]: 0.13 µM | IC50 [2]: 1.19 µM

SMILES: CO[C@@H]1[C@@H](n2cc(-c3ccc(C)c(F)c3F)nn2)[C@@H](O)[C@@H](CO)O[C@@H]1Cc1cc(C2CCC2)on1 [Ex 1.224]
IC50 [1]: 0.07 µM | IC50 [2]: 14.1 µM

SMILES: OC[C@H]1O[C@H](CC2=NOC(Cc3ccccc3)C2)[C@H](O)[C@@H](n2cc(-c3cc(F)c(F)c(F)c3)nn2)[C@H]1O (stereo partly drawn) [Ex 1.36]
IC50 [1]: 2.54 µM | IC50 [2]: 10.9 µM

SMILES: CO[C@@H]1[C@@H](n2cc(-c3cc(F)c(F)c(F)c3)nn2)[C@@H](O)[C@@H](CO)O[C@@H]1Cn1cc(C2(O)CCCC2)nn1 [Example 4.41, (2R,3R,4S,5R,6R)-6-((4-(1-hydroxycyclopentyl)-1H-1,2,3-triazol-1-yl)methyl)-2-(hydroxymethyl)-5-methoxy-4-(4-(3,4,5-trifluorophenyl)-1H-1,2,3-triazol-1-yl)tetrahydro-2H-pyran-3-ol]
IC50 [1]: 0.34 µM | IC50 [2]: 2.49 µM

SMILES: CO[C@@H]1[C@@H](n2cc(-c3ccc(C)c(F)c3F)nn2)[C@@H](O)[C@@H](CO)O[C@@H]1Cc1cc(C2(C)CC2)no1 [Ex 1.255]
IC50 [1]: 0.032 µM | IC50 [2]: 2.06 µM

SMILES: OC[C@H]1O[C@H](CC2=NOC(C3CCCCC3)C2)[C@H](O)[C@@H](n2cc(-c3cc(F)c(F)c(F)c3)nn2)[C@H]1O (stereo partly drawn) [Ex 1.35]
IC50 [1]: 1 µM | IC50 [2]: 5.58 µM

SMILES: CO[C@@H]1[C@@H](n2cc(-c3ccc(F)c(F)c3F)nn2)[C@@H](O)[C@@H](CO)O[C@@H]1Cc1cc(C2(C)CCOCC2)on1 [Ex 1.269]
IC50 [1]: 0.049 µM | IC50 [2]: 0.9 µM
